Where a name gives a salt, the structure may show the parent alone.
What was measured:
Type in all cases: physicochemical
[1] = TG/DSC and DSC thermal analysis; settings: listed as Crystalline Form 8 Compound 1 mono(hydrogen sulfate)
Method: (§1) In the examples below, to measure TGA/DSC, 2-10 mg of material was added into a pre-tared open aluminum pan and loaded into a TA Instruments Discovery SDT 650 Auto—Simultaneous DSC and held at room temperature. The sample was then heated at a rate of 10° C./min from 30° C. to 400° C. during which time the change in sample weight was recorded along with the heat flow response (DSC). Nitrogen was used as the sample purge gas, at a flow rate of 200 cm^3/min.
(§2) METHOD A: In Example 3, 1-5 mg of material was weighed into an aluminum DSC pan and sealed non-hermetically with a pierced aluminum lid. The sample pan was then loaded into a TA DSC2500 and held at 20° C. Once a stable heat-flow response was obtained, the sample and reference were heated to an upper temperature of 200° C. at a scan rate of 10° C./min and the resulting heat flow response monitored. The sample was held at the upper temperature for 3 minutes, before it was cooled at 10° C./min to 20° C., reheated to the upper temperature at 10° C./min, and then cooled again to 20° C. at the same rate. Nitrogen was used as the purge gas, at a flow rate of 50 cm^3/min.
as §2, with “B:” for “A:”, “Examples 2A, 14, and 17,” for “Example 3,”, “−80° C. and then” for “20° C.,”, “C./min.” for “C./min, and then cooled again to 20° C. at the same rate.”
METHOD C: In Example 5, 1-5 mg of a sample were weighed into an aluminum DSC pan and sealed non-hermetically with an aluminum lid. The sample pan was then loaded into a TA Instruments Discovery DSC 2500 differential scanning calorimeter equipped with a RC90 cooler. The sample and reference were heated to 190° C. at a scan rate of 10° C./min and the resulting heat flow response monitored. The sample was re-cooled to −80° C. and then reheated again to 190° C. all at 10° C./min. Nitrogen was used as the purge gas, at a flow rate of 50 cm^3/min.
as §1, with “2-10” for “In the examples below, to measure TGA/DSC, 2-10”, “Auto-Simultaneous” for “Auto—Simultaneous”
as §2, with “1-5” for “METHOD A: In Example 3, 1-5”, “min,” for “minutes,”

[2] = salt screen, XRPD of damp, dried and 40° C./75% RH stored samples (Salt Preparation Methods 1 and 2); set-up: key: A: amorphous; Crystalline Form 10 mono(hydrogen sulfate); settings: Sulfuric Acid, 1 equiv.
Method: Salt Preparation Method 1: Approximately 25 mg of Compound 1 (free base) was weighed out into 1.5 mL screw-cap vials and a stirrer bar was added. For solid counterions, the appropriate amount of acid (1.0 or 2.0 equiv.) was weighed into separate 1.5 mL screw-cap vials. 100 μL of the appropriate solvent system was added to both the Compound 1 and the solid counterions. Stock solutions of liquid counterions were prepared, such that 100 μL contained 1.0 or 2.0 equiv. of acid. See counterion and solvent lists in Table 60 and Table 61 respectively.
The samples were stirred at 40° C. for 5-10 min and then the acid solutions were added to Compound 1, rinsing out the transfer vial with a further 50 μL of solvent. […] Experiments were temperature cycled between 40° C. and 5° C. (1 h hold; 0.1° C./min ramp/cool) for ca. 24-68 h. Anti-solvent addition (ASA) was carried out to slurries at 5° C. then experiments were heated to 30° C. over 1 h. ASA was carried out at 30° C. or 40° C. where clear solutions or gums were observed.
Temperature cycling was then continued for ca. 16-69 h, followed by further ASA and temperature cycling if required. Material was isolated at 5° C. and analyzed damp by XRPD. All isolated material was dried under vacuum at ca. 40° C. for ca. 17-91 h then re-analyzed by XRPD. The XRPD plate was stored at 40° C./75% RH for 24-48 h and then samples re-analyzed. Solutions were stored uncapped at ambient temperature to evaporate. Any residual solids were analyzed by XRPD.
Salt Preparation Method 2: The general procedure adopted in preparing the potential salts is outlined below. A known mass of Compound 1 (free base) and a known volume of the appropriate solvent system were added to 20 mL scintillation vials. The required mol. equiv. of the appropriate counterions were added to the vials as solutions or slurries in the corresponding solvent system.
The experiments were stirred at 40° C. for ca. 1 h, and then temperature cycled between 40° C. and 5° C. with 0.1° C./min ramp and 1 h hold between each step. Anti-solvent additions and subsequent slurrying at 5° C. were employed in order to facilitate crystallization. […] The damp and dried solids were subsampled and analyzed by XRPD. Where applicable, the dried solids were stored at 40° C./75% RH for 24-48 h in order to improve the crystallinity and/or facilitate solid form conversion to the desired form.

[3] = Variable Humidity X-Ray Powder Diffraction (VH-XRPD); set-up: key to VH-XRPD XRPD Results: A = amorphous; 1 = Form 1 Compound 1 hydrogen chloride; PC = poorly crystalline
Method: (§3) In the examples below, VH-XRPD analysis was carried out on a Philips X'Pert Pro Multipurpose diffractometer equipped with a humidity chamber. The samples were scanned between 4 and 36° 2θ using Cu K radiation (α1λ=1.54060 Å; α2=1.54443 Å; β=1.39225 Å; α1: α2 ratio=0.5; most, if not all, B radiation is removed from the beam using an X-ray mirror) running in Bragg-Brentano geometry (step size 0.008° 2θ) using 40 kV/40 mA generator settings. Measurements were carried out from 2-90% RH, with a final measurement taken at 40% RH.
as §3, with “VH-XRPD” for “In the examples below, VH-XRPD”, “radiation (α1 λ=1.54060” for “radiation (α1λ=1.54060”, “Å; α1:α2” for “Å; α1: α2”, “all, β” for “all, B”, “from 6-90% relative humidity (RH),” for “from 2-90% RH,”

[4] = Dynamic Vapor Sorption (DVS)
Method: (§4) METHOD A: In Example 11, approximately 5-15 mg of sample was placed into a mesh vapor sorption balance pan and loaded into either a DVS Intrinsic or DVS Advantage dynamic vapor sorption balance by Surface Measurement Systems. The sample was subjected to a ramping profile from 40-90% relative humidity (RH) at 10% increments, maintaining the sample at each step until a stable weight had been achieved (dm/dt 0.004%, minimum step length 30 minutes, maximum step length 500 minutes) at 25° C. After completion of the sorption cycle, the sample was dried using the same procedure to 0% RH and then a second sorption cycle back to 40% RH was carried out. Two cycles were performed. The weight change during the sorption/desorption cycles were plotted, allowing the hygroscopic nature of the sample to be determined. XRPD analysis was then carried out on the residual solid.
as §4, with “B:” for “A:”, “Examples 2A, 3, 14, and 17,” for “Example 11,”, “10-20” for “5-15”, “determined.” for “determined. XRPD analysis was then carried out on the residual solid.”
as §4, with “Approximately 10-20” for “METHOD A: In Example 11, approximately 5-15”, “RH” for “relative humidity (RH)”, “min,” for “minutes,”, “min)” for “minutes)”, “determined.” for “determined. XRPD analysis was then carried out on the residual solid.”

COc1cc(C(=O)O[C@@H]2CCCOc3cc(cc(OC)c3OC)C(=O)NCCCN3CCCN(CC2)CC3)cc(OC)c1OC.O=S(=O)(O)O
TGA/DSC mass loss [1]: 7.2% mass loss
TGA/DSC thermal event, onset ([1]; value before the brackets): 144 °C
TGA/DSC thermal event, peak ([1]; value in brackets): 158 °C

COc1cc(C(=O)O[C@@H]2CCCOc3cc(cc(OC)c3OC)C(=O)NCCCN3CCCN(CC2)CC3)cc(OC)c1OC [Compound 1 mono(hydrogen sulfate)]
XRPD Analysis 40° C. 75% RH ([2]; Acetonitrile, AS tBME): A
XRPD Analysis Damp ([2]; Acetonitrile, AS tBME): A
XRPD Analysis Dry ([2]; Acetonitrile, AS tBME): A
XRPD Analysis 40° C. 75% RH ([2]; Ethanol, AS Heptane): A
XRPD Analysis Damp ([2]; Ethanol, AS Heptane): A
XRPD Analysis Dry ([2]; Ethanol, AS Heptane): A
XRPD Analysis 40° C. 75% RH ([2]; Ethyl acetate, AS Heptane): A
XRPD Analysis Damp ([2]; Ethyl acetate, AS Heptane): A
XRPD Analysis Dry ([2]; Ethyl acetate, AS Heptane): A
XRPD Analysis 40° C. 75% RH ([2]; IPA:H2O (75:25% v/v), AS tBME): 10
XRPD Analysis Damp ([2]; IPA:H2O (75:25% v/v), AS tBME): A
XRPD Analysis Dry ([2]; IPA:H2O (75:25% v/v), AS tBME): A
XRPD Analysis 40° C. 75% RH ([2]; MEK, AS Heptane): 10
XRPD Analysis Damp ([2]; MEK, AS Heptane): A
XRPD Analysis Dry ([2]; MEK, AS Heptane): A
XRPD Analysis 40° C. 75% RH ([2]; THF, AS Heptane): A
XRPD Analysis Damp ([2]; THF, AS Heptane): A
XRPD Analysis Dry ([2]; THF, AS Heptane): A

COc1cc(C(=O)O[C@@H]2CCCOc3cc(cc(OC)c3OC)C(=O)NCCCN3CCCN(CC2)CC3)cc(OC)c1OC.Cl.Cl
relative humidity range in which the form is retained (VH-XRPD) [3]: 7-80 % RH
VH-XRPD XRPD Results ([3]; Desorption (1st), 7% RH, hold 60 min): 1
VH-XRPD XRPD Results ([3]; Desorption (1st), 10% RH, hold 60 min): 1
VH-XRPD XRPD Results ([3]; Desorption (1st), 20% RH, hold 960 min): 1
VH-XRPD XRPD Results ([3]; Desorption (1st), 40% RH, hold 60 min): 1
VH-XRPD XRPD Results ([3]; Desorption (2nd), 40% RH, hold 60 min): 1
VH-XRPD XRPD Results ([3]; Desorption (2nd), 60% RH, hold 60 min): 1
VH-XRPD XRPD Results ([3]; Sorption, 10% RH, hold 60 min): 1
VH-XRPD XRPD Results ([3]; Sorption, 20% RH, hold 60 min): 1
VH-XRPD XRPD Results ([3]; Sorption, 40% RH, hold 60 min): 1
VH-XRPD XRPD Results ([3]; Sorption, 60% RH, hold 60 min): 1
VH-XRPD XRPD Results ([3]; Sorption, 70% RH, hold 60 min): 1
VH-XRPD XRPD Results ([3]; Sorption, 80% RH, hold 60 min): 1
hygroscopicity ([4]; 25° C.): moderate-high hygroscopicity
hysteresis between the sorption and desorption cycles (DVS) ([4]; 25° C. (fumarate: at 20% RH)): ca. 1.3%
post-DVS sample (XRPD / appearance) ([4]; DVS at 25° C.): gum-like material
moisture uptake (DVS) ([4]; between 0-80% RH, second sorption cycle, 25° C.): 18%
moisture uptake (DVS) ([4]; between 40-80% RH, first sorption cycle, 25° C.): ca. 5%
moisture uptake (DVS) ([4]; between 80-90% RH, 25° C.): 9%

— US20240327415A1, “Multicomponent Complexes, Including Salts, Crystalline Forms, and Hydrates and Solvates of ENT1 Inhibitors” (iTeos Belgium SA, priority 2023, published 2024)
